Measurements reported in patent US8586719B2, “Triterpenes for modulating gene expression and cell membrane, and as antiprotozoal agents” (Pacific Arrow Limited, priority 2005, dated 2013).

Key:
[1] = system: angiopoietin 2; assay: Microarray gene expression in ES2 cells: angiopoietin 2; assay type: cell-based, human; settings: micro array
From the text: (§1) The composition comprises bioactive compounds from natural plants or synthesis. The majority of the plants are from the Sapindaceae family, which has 140-150 genera with 1400-2000 species. The program is based on our purification methods and biological assays including the MTT assay See International Application No. PCT/US05/31900, filed Sep. 7, 2005, U.S. Ser. No. 11/289,142, filed Nov. 28, 2005, and U.S. Ser. No. 11/131,551, filed May 17, 2005, and PCT/US2008/002086, 1188-ALA-PCT, filed Feb. 15, 2008, the contents of which are incorporated herein by reference. The details of Analysis of gene expression of ES2 cells after Y-treatment by Microarray, Data Analysis Methods and Western blot in PCT/US2008/002086, 1188-ALA-PCT, filed Feb. 15, 2008, the contents of which are incorporated herein by reference
(§2) Angiogenesis is a process involving the growth of new blood vessels. It is a normal process in growth and development. However, this is also a fundamental step in the transition of tumors from a dormant state to a malignant state. The angiopoietins are protein growth factors that modulate angiogenesis. […]

[2] = system: Fibronectin; assay: Fibronectin secretion, lung carcinoma cells (H460); assay type: cell-based, human; settings: Homo sapiens, NCI-H460; H460 cells; 20 ug/ml
Method: (§3) Reduction of Fibronectin secretion from ES2 cells after xanifolia-Y treatment. • (Results of F1, F3, F4, F5, F7, F8, F11, F12A, F15, F16, F17) Data in PCT/US2008/002086, 1188-ALA-PCT, filed Feb. 15, 2008 are incorporated herein by reference • (F11) For lung carcinoma cells (H460), at concentration of 20 ug/ml, there are inhibitions of Fibronectin secretion ranged from 20-60%. • (F12A) For bladder carcinoma cells (HTB-9), Xanifolia-Y (10 ug/ml) inhibits 50% of Fibronectin secretion. • (F15) In liver HepG2 cells. 10 ug/ml of xanifolia-Y inhibits 42% secretion of Fibronectin. • (F16) Incubation of brain glioblastoma T98G cells with 10 ug/ml of xanifolia-Y inhibits 27% Fibronectin secretion and with 20 ug/ml Y inhibits 74% Fibronectin secretion. • (F17) For skin SK-MeI-5 cells, the inhibition is 40-57% with 20 ug/ml of Xanifolia-Y.

[3] = system: tumor bearing mice; assay: Animal studies in tumor bearing mice; assay type: in vivo
From the text: (Reference Experiments 7, 8, 9 in U.S. Ser. Nos. 11/683,198, filed on Mar. 7, 2007,). The animals died sooner if the treatment of Xanifolia-Y was delayed (comparing results of treatments started from 1, 4 or 10 days after tumor inoculation). […] Ovarian carcinoma cells express high levels of adhesion molecules. Adhesion proteins are present in both cancer cells and mesothelial cells. While the lost of adhesion blocks of the protein accessibility due to a result of modulating by Xanifolia-Y, In an embodiment, the interaction of Xanifolia-Y with membrane alter the adhesion protein's binding site(s).

[4] = system: potassium channel, subfamily U, member 1 (KCNU1); assay: Microarray gene expression in ES2 cells: potassium channel; assay type: cell-based, human; settings: ID 237273_at
From the text: as §1

[5] = system: thrombospondin 1 (THBS1); assay: Microarray gene expression in ES2 cells: thrombospondin; assay type: cell-based, human
From the text: as §1

[6] = system: COL1A1 (collagen type 1 alpha 1); assay: Gene expression by Real-time PCR: COL1A1; assay type: cell-based; settings: control = 100
[7] = system: insulin-like growth factor binding protein 4 (IGFBP4); assay: Microarray gene expression in ES2 cells: IGFBP4; assay type: cell-based, human; settings: probe set 201508_at
From the text: as §1

[8] = system: ES2 cells; assay: Microarray experiments: lists of modulated genes; assay type: cell-based, human
From the text: as §1

[9] = system: Fibronectin; assay: Fibronectin secretion, bladder carcinoma cells (HTB-9); assay type: cell-based, human; settings: Homo sapiens; Bladder HTB-9; 10 ug/ml (table: label suffix -10)
Method: as §3

[10] = system: NFKB1Z (nuclear factor of kappa light polypeptide gene enhancer in B-cells inhibitor, zeta); assay: Gene expression by Real-time PCR: NFKB1Z; assay type: cell-based; settings: DMSO control = 100
From the text: (§4) Determination of gene expression by Real-time PCR method (Brilliant QPCR, Agilent Technologies): The real-time polymerase chain reactions further confirm the results obtained from micro array analysis. The Real-time PCR results (shown below) confirmed that Compound Y3 and YM increase the expression of the genes: ANGPT2, DDIT3, LIF and NFKB1Z

[11] = system: insulin-like growth factor binding protein 1 (IGFBP1); assay: Microarray gene expression in ES2 cells: IGFBP1; assay type: cell-based, human; settings: probe set 205302_at
From the text: as §1

[12] = system: insulin-like growth factor binding protein 3 (IGFBP3); assay: Microarray gene expression in ES2 cells: IGFBP3; assay type: cell-based, human
From the text: as §1

[13] = system: insulin-like growth factor binding protein 6 (IGFBP6); assay: Microarray gene expression in ES2 cells: IGFBP6; assay type: cell-based, human; settings: probe set 203851_at
From the text: as §1

[14] = system: angiopoietin-like 4; assay: Microarray gene expression in ES2 cells: angiopoietin-like 4; assay type: cell-based, human; settings: micro array
From the text: as §1, §2

[15] = system: Fibronectin; assay: Fibronectin secretion, brain glioblastoma T98G cells; assay type: cell-based, human; settings: Homo sapiens, T98G
Method: as §3

[16] = system: leptin; assay: Expression of leptin; assay type: cell-based
[17] = system: LIF (Leukemia inhibitory factor); assay: Gene expression by Real-time PCR: LIF; assay type: cell-based; settings: DMSO control = 100
From the text: as §4

With `C/C=C(/C)C(=O)O[C@H]1[C@H](OC(=O)/C(C)=C\C)[C@@]2(CO)C(CC1(C)C)C1=CCC3[C@@]4(C)CC[C@H](O[C@@H]5OC(C(=O)O)[C@@H](O)[C@@H](O[C@@H]6O[C@@H](CO)[C@@H](O)C6O)C5O[C@@H]5OC(CO)[C@H](O)[C@@H](O)C5O)C(C)(C)C4CC[C@@]3(C)[C@]1(C)[C@@H](O)[C@H]2O` (stereo partly drawn) [Y, 3-O-[β-D-galactopyranosyl(1→2)]-α-L-arabinofuranosy (1→3)-β-D-glucuronopyranosyl-21,22-O-diangeloyl-3β, 15α, 16α, 21β, 22α, 28-hexahydroxyolean-12-ene] the “gene expression of angiopoietin 2” value [1] was “promote”, the inhibition at 20 µg/mL [2] was 20 to 60% and the “life span of tumor bearing mice” value ([3]; Experiments 7, 8, 9 of U.S. Ser. No. 11/683,198) was “extended the life span”. The “migration or metastasis of the inoculated cancer cells” value ([3]; treatment started 1, 4 or 10 days after tumor inoculation) was “inhibits migration or metastasis”, the “KCNU1 expression, treated/D (DMSO control)” value [4] was −4.0 and the “THBS1 expression, treated/D (DMSO control)” value (“THBS1 expression, treated/D” for short) ([5]; probe set 201108_s_at) was −1.7. The “THBS1 expression, treated/D” value ([5]; probe set 201109_s_at) was −2.0, the “THBS1 expression, treated/D” value ([5]; probe set 201110_s_at) was −1.8 and the “COL1A1 expression, % of control” value [6] was 49.9 % of control. For the same molecule, the “IGFBP4 expression, treated/D (DMSO control)” value [7] was −1.7, the “genes expression of the adhesion-related genes listed in b182 (FN1, ITGAV, LAMA4 ...)” value [8] was “inhibited” and the “gene expression of the genes listed in b176” value ([8]; Microarray) was “modulates”. For the same molecule, the “gene expression of the genes listed in b178” value ([8]; Microarray) was “inhibiting”, the “gene expression of the genes listed in b180” value ([8]; Microarray) was “stimulates” and the inhibition at 10 µg/mL [9] was 50%. For the same molecule, the “NFKB1Z expression, % of control” value [10] was 142.9 % of control, the “IGFBP1 expression, treated/D (DMSO control)” value [11] was −1.7 and the “IGFBP3 expression, treated/D (DMSO control)” value ([12]; probe set 210095_s_at) was −4.0. For the same molecule, the “IGFBP3 expression, treated/D (DMSO control)” value ([12]; probe set 212143_s_at) was −3.7, the “IGFBP6 expression, treated/D (DMSO control)” value [13] was −1.3 and the “gene expression of angiopoietin-like 4” value [14] was “inhibit”. For the same molecule, the inhibition at 10 µg/mL ([15]; read-out: % inhibition of Fibronectin secretion) was 27%, the inhibition at 20 µg/mL ([15]; read-out: inhibition of Fibronectin secretion) was 74% and the expression of leptin [16] was “inhibit”. For the same molecule, the “LIF expression, % of control” value [17] was 163 % of control.
